Laboratory results: article PMC11598835 (Viruses, 2024)
In brackets after ≈: the same amount, converted by molar mass. Like-named read-outs stand apart in the source and are kept apart here.

What was measured:
in vitro = assay type: cell-based; details: human
[1] = molecular target: Recombinant SARS-CoV-2 Mpro (Severe acute respiratory syndrome coronavirus 2, UniProt P0DTD1); test: Protease inhibition FRET assay, Mpro; assay type: biochemical; details: Mpro 1.5 μM, substrate 50 μM
[2] = molecular target: Recombinant SARS-CoV-2 PLpro (Severe acute respiratory syndrome coronavirus 2, UniProt P0DTD1); test: biochemical; details: FRET, PLpro 1 μM
physchem = assay type: physicochemical; details: water, thermodynamic from solid
[3] = In vivo plasma pharmacokinetics in rats; details: male, Wistar, ip, rat
[4] = tested on: SARS-CoV-2 B.1 lineage isolate
[5] = tested on: SARS-CoV-2 B.1 lineage isolate; test: microbe, parasite or virus in culture; details: Severe acute respiratory syndrome coronavirus 2, Calu-3, 24 h
[6] = cited from earlier work
SARS-CoV-2 = details: read-out: EC50, anti-SARS-CoV-2; cited from earlier work
HIV-1 = tested on: HIV-1; set-up: method as in ref 15 = [15]; details: read-out: EC50, antiviral activity for HIV-1; cited from earlier work
[7] = read-out: Inhibition of Viral Replication in Calu-3 (%)
[8] = read-out: difference in SARS-CoV-2 inhibition compared to compound 4a

SMILES	CC50 at 72 h (in vitro)	IC50 [1]	IC50 [2]	SI (CC50/EC50) [4]	selectivity indexes (SI), conclusions [4]	inhibition at 10 µM [5, 7]	other results
O=C1c2ccccc2C(=O)c2c1[nH]c1ccccc21 [4a, 5H-Benzo[b]carbazole-6,11-dione]	> 200 µM	0.11 ± 0.05 µM	153 ± 0.1 µM	>266.7	> 50 µM	94.6%	solubility (physchem): 1.43 µg/mL (≈ 5.78 µM); CL/F ([3]; plasma, 5 mg/kg i.p.): 31.2 mL/min/kg; Vd/F ([3]; plasma, 5 mg/kg i.p., read-out: Vz/F): 98 ± 186 L/kg; half-life ([3]; plasma, 5 mg/kg i.p., read-out: t1/2,z (converted)): 37 ± 60 h; Cmax ([3]; in vivo, 5 mg/kg): 770 ± 120 nM; Tmax ([3]; in vivo, 5 mg/kg): 0.333 h; concentration at 24 h ([3]; in vivo, 5 mg/kg): 120 ± 40 nM
COc1ccc2[nH]c3c(c2c1)C(=O)c1ccccc1C3=O [4b, 2-Methoxy-5H-benzo[b]carbazole-6,11-dione]	> 200 µM	0.37 ± 0.05 µM	72.1 ± 0.1 µM	>119.0	> 50 µM	96.2%	difference in SARS-CoV-2 inhibition compared to compound 4a ([4]; 10 µM): no significant change
Cc1ccc2[nH]c3c(c2c1)C(=O)c1ccccc1C3=O [4c, 2-Methyl-5H-benzo[b]carbazole-6,11-dione]							Inhibition of Viral Replication in Calu-3 (%) ([4]; 10 µM): ineffective
COc1cccc2c3c([nH]c12)C(=O)c1ccccc1C3=O [4d, 4-Methoxy-5H-benzo[b]carbazole-6,11-dione]	> 200 µM	> 200 µM	190.8 ± 0.1 µM	>141.8	> 50 µM	86.5%	inhibition at 10 µM [5, 8]: 8.1%
COc1cc(OC)c2[nH]c3c(c2c1)C(=O)c1ccccc1C3=O [4e, 2,4-Dimethoxy-5H-benzo[b]carbazole-6,11-dione]						47.1%	inhibition at 10 µM [5, 8]: 47.4%
CCOC(=O)c1ccc2[nH]c3c(c2c1)C(=O)c1ccccc1C3=O [4f, Ethyl 6,11-dioxo-6,11-dihydro-5H-benzo[b]carbazole-2-carboxylate]						64%	Inhibition of Viral Replication in Calu-3 (%) ([4]; 10 µM): 64%
O=C1c2ccccc2C(=O)c2c1[nH]c1ccc(F)cc21 [4g, 2-Fluoro-5H-benzo[b]carbazole-6,11-dione]						69.4%	Inhibition of Viral Replication in Calu-3 (%) ([4]; 10 µM): 69%
O=C1c2ccccc2C(=O)c2c1[nH]c1c2ccc2ccccc21 [4i, 7H-Dibenzo[a,h]carbazole-7,12(13H)-dione]	> 200 µM	> 200 µM	148.7 ± 0.6 µM	>53.7	> 50 µM	85.9%	viability at 72 h, 100 µM (in vitro): 68%; EC50 [4]: 3.73 ± 0.6 µM; EC50 [5]: < 4 µM
COC(=O)N[C@H](C(=O)N[C@@H](Cc1ccccc1)[C@@H](O)CN(Cc1ccc(-c2ccccn2)cc1)NC(=O)[C@@H](NC(=O)OC)C(C)(C)C)C(C)(C)C [Atazanavir]							free fraction, experimental data [6]: 14%
CC(C)C(=O)OC[C@H]1O[C@@H](n2ccc(NO)nc2=O)[C@H](O)[C@@H]1O [Molnupiravir]							EC50 (SARS-CoV-2): 1.96 µM
CC(C)(C)[C@H](NC(=O)C(F)(F)F)C(=O)N1C[C@H]2[C@@H]([C@H]1C(=O)N[C@H](C#N)C[C@@H]1CCNC1=O)C2(C)C [Nirmatrelvir]							EC50 (SARS-CoV-2): 0.1 µM
COc1cc2[nH]c3ccccc3c2cc1C=O [O-Methylmukonal]							EC50 (HIV-1): 12 µM
CCC(CC)COC(=O)[C@H](C)N[P@](=O)(OC[C@H]1O[C@@](C#N)(c2ccc3c(N)ncnn23)[C@H](O)[C@@H]1O)Oc1ccccc1 [Remdesivir]							EC50 (SARS-CoV-2): 2.49 µM
